Measured values published in US11046712B2, “Glycosidase inhibitors” (Asceneuron SA, priority 2014, dated 2021).
Where two headings read alike, the source gives them in different places.

Target: His-Tagged hOGA (human O-GlcNAcase) (Homo sapiens (Human), UniProt O60502)
Experiment: Human O-GlcNAcase enzyme inhibition assay (Example B01)
Assay type: biochemical
Conditions: for IC50: OGA enzyme inhibition assay, activity range classes

Sequence of His-Tagged hOGA (human O-GlcNAcase) (O60502 whole entry): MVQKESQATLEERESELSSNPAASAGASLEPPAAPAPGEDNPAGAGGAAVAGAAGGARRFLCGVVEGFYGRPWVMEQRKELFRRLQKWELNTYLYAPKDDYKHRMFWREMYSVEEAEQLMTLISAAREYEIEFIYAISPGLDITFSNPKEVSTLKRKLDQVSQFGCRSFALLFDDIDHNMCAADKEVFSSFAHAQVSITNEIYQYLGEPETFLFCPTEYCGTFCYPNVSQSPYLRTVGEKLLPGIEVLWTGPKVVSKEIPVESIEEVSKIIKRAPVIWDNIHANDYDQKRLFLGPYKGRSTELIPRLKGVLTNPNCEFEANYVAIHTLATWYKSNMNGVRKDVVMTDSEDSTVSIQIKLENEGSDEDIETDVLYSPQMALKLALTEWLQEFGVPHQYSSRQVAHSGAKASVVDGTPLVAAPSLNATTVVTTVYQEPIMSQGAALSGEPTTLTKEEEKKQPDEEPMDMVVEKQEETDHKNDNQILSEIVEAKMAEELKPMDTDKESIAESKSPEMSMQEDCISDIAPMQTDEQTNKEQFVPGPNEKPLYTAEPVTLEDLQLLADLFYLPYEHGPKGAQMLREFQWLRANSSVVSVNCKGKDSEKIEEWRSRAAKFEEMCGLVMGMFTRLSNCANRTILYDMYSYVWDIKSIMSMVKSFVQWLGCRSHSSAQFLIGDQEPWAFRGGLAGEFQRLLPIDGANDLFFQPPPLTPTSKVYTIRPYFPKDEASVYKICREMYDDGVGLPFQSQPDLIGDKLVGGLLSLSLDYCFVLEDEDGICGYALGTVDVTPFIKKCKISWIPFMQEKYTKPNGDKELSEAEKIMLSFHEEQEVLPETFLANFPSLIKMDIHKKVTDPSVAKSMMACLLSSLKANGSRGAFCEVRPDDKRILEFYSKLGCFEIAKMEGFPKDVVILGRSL

Cc1csc(N2CCN([C@H](C)c3ccc4c(c3)OCO4)CC2)n1 (single isomer, unassigned) [Example 15, (R)-2-(4-(1-(benzordiri,31dioxol-5-yl)ethyl)piperazin-1-yl)-4-methylthiazole or (S)-2-(4-(1-(benzordiri,31 dioxol-5-yl)ethyl)piperazin-1-yl)-4-methylthiazole]
IC50 (OGA IC50 (M)): 5e-08 to 2e-07 M

C[C@@H](c1ccc2c(c1)OCCO2)N1CCN(c2ncc(C(=O)N3CCC(O)CC3)s2)CC1 (single isomer, unassigned) [Example 81, (/?)-(2-(4-(1-(2,3-Dihydrobenzorbin,41dioxin-6-yl)ethyl)piperazin-1-yl)thiazol-5-yl)(4-hydroxypiperidin-1-yl)methanone or (S)-(2-(4-(1-(2,3-Dihydrobenzorbin,41dioxin-6-yl)ethyl)piperazin-1-yl)thiazol-5-yl)(4-hydroxypiperidin-1-yl)methanone]
IC50 (read-out: OGA IC50): < 5e-08 M

Cc1ncc(N2CCN(C(C)c3ccc4c(c3)OCO4)CC2)s1 (racemic) [Example 37, 5-(4-(1-(Benzordiri,31dioxol-5-yl)ethyl)piperazin-1-yl)-2-methylthiazole]
OGA inhibitor activity, in words: very potent OGA inhibitors

CC(=O)Nc1cnc(N2CCN([C@H](C)c3ccc4c(c3)OCO4)CC2)nc1 (single isomer, unassigned) [Example 77]
IC50 (OGA IC50 (M)): 1e-06 to 1e-05 M

C[C@@H](c1ccc2c(c1)OCO2)N1CCN(c2ncc(C3(O)CCCCC3)cn2)CC1 [Example 180, (S)-1-(2-(4-(1-(benzo[dl][1,31dioxol-5-yl)ethyl)piperazin-1-yl)pyrimidin-5-yl)cyclohexan-1-ol]
OGA inhibitor activity, in words: very potent OGA inhibitors

CC(=O)Nc1cnc(N2CCN(C(C)c3ccc4c(c3)OCO4)CC2)nc1 (racemic) [Example 72, N-(2-(4-(1-(benzordlH,31dioxol-5-yl)ethyl)piperazin-1-yl)pyrimidin-5-yl)acetamide]
OGA inhibitor activity, in words: very potent OGA inhibitors

CNC(=O)c1cnc(N2CCN([C@@H](C)c3ccc4c(c3)OCO4)CC2)nc1 [Example 134, (S) 2-(4-(1-(benzordiri,31dioxol-5-yl)ethyl)piperazin-1-yl)-N-methylpyrimidine-5-carboxamide]
OGA inhibitor activity, in words: very potent OGA inhibitors

CC(=O)Nc1nnc(N2CCN(C(C)c3ccc4c(c3)OCC4)CC2)s1 (racemic) [Example 128]
OGA inhibitor activity, in words: very potent OGA inhibitors

C[C@@H](c1ccc2c(c1)OCO2)N1CCN(c2ncc(F)cn2)CC1 [Example 173, (S)-2-(4-(1-(benzofdin,31dioxol-5-yl)ethyl)piperazin-1-yl)-5-fluoropyrimidine]
OGA inhibitor activity, in words: very potent OGA inhibitors

CC(=O)Nc1nnc(N2CCN(C(C)c3ccc4scnc4c3)CC2)s1 (racemic) [Example 114]
OGA inhibitor activity, in words: very potent OGA inhibitors

CCNC(=O)c1cnc(N2CCN([C@@H](C)c3ccc4c(c3)OCO4)CC2)s1 (single isomer, unassigned) [Example 60]
IC50 (OGA IC50 (M)): 5e-08 to 2e-07 M

CC(O)c1cnc(N2CCN([C@@H](C)c3ccc4c(c3)OCO4)CC2)nc1 (stereo in doubt) [Example 168, 1-(2-(4-((S)-1-(benzo[dl]1,31dioxol-5-yl)ethyl)piperazin-1-yl)pyrimidin-5-yl)ethan-1-ol]
OGA inhibitor activity, in words: very potent OGA inhibitors

CNC(=O)c1csc(N2CCN([C@@H](C)c3ccc4c(c3)OCO4)CC2)n1 (single isomer, unassigned) [Example 56, (/?)-2-(4-(1-(Benzordiri,31dioxol-5-yl)ethyl)piperazin-1-yl)-N-methylthiazole^4-carboxamide or ^S)-2-(4-(1-(benzordiri,31dioxol-5-yl)ethyl)piperazin-1-yl)-N-methylthiazole^4-carboxamide]
OGA inhibitor activity, in words: very potent OGA inhibitors
IC50 (read-out: OGA IC50): < 5e-08 M
